Tests used:
[1] = target: CLK1 (Homo sapiens (Human), UniProt P49759); assay: scanMAX Kinase assay panel; type: binding; conditions: read-out: % control
How it was run: (§1)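 % control read-out: DMSO vehicle = 100%, positive control = 0%, test compound scaled between these two. Selectivity profiling was done on the scanMAX kinase panel.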

[2] = target: CLK4 (Homo sapiens (Human), UniProt Q9HAZ1); assay: scanMAX Kinase assay panel; type: binding; conditions: read-out: % control
How it was run: as §1

[3] = target: CLK3 (Homo sapiens (Human), UniProt P49761); assay: scanMAX Kinase assay panel; type: binding; conditions: read-out: % control
Chain of CLK3 (P49761 whole entry): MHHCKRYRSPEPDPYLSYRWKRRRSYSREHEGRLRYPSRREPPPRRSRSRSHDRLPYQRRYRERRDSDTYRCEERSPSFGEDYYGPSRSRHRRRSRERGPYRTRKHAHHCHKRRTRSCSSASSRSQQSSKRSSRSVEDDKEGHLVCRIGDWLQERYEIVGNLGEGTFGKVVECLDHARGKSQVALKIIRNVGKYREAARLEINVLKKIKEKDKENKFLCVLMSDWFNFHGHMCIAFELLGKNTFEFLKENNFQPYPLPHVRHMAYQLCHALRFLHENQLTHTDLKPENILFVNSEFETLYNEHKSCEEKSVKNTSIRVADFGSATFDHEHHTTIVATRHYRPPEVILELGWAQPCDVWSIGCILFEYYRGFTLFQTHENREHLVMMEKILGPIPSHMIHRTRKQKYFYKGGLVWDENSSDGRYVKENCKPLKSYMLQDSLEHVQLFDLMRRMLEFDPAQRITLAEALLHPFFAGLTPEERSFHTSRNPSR
How it was run: as §1

[4] = target: CLK2 (Homo sapiens (Human), UniProt P49760); assay: scanMAX Kinase assay panel; type: binding; conditions: read-out: % control
Chain of CLK2 (P49760 whole entry): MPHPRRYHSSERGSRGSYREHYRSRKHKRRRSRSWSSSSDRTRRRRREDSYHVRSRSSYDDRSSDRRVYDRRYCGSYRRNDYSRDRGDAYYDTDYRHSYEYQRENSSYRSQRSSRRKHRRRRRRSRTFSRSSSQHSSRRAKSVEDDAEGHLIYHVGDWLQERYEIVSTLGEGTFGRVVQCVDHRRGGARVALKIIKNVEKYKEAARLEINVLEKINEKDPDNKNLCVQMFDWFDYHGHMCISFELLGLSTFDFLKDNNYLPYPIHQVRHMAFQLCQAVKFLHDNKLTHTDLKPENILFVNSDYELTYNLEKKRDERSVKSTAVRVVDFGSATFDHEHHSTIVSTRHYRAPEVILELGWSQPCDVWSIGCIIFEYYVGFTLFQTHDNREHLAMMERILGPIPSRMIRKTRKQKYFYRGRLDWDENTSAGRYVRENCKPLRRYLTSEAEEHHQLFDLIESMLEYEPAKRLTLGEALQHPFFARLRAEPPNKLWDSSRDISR
How it was run: as §1

[5] = target: DYRK1B (Homo sapiens (Human), UniProt Q9Y463); assay: scanMAX Kinase assay panel; type: binding; conditions: read-out: % control
Chain of DYRK1B (Q9Y463 whole entry): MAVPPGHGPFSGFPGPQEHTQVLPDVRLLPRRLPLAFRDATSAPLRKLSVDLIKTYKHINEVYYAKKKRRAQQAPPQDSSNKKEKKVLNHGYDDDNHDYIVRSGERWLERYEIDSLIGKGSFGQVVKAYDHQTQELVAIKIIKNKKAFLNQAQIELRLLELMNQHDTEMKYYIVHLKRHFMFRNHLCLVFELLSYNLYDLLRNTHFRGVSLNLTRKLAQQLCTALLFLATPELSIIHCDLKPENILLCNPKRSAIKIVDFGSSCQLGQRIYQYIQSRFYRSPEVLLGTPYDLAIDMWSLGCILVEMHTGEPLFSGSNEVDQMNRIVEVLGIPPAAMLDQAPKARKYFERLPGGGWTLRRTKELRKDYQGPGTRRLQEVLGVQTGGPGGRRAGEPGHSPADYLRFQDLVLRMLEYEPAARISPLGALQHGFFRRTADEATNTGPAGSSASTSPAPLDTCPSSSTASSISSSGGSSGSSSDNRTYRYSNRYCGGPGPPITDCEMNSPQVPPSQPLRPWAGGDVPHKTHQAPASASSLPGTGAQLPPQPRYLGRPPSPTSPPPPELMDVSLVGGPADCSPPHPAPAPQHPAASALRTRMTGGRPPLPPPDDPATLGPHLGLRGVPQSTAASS
How it was run: as §1

[6] = target: CDK5 (Homo sapiens (Human), UniProt Q00535); assay: scanMAX Kinase assay panel; type: binding; conditions: read-out: % control
Chain of CDK5 (Q00535 whole entry): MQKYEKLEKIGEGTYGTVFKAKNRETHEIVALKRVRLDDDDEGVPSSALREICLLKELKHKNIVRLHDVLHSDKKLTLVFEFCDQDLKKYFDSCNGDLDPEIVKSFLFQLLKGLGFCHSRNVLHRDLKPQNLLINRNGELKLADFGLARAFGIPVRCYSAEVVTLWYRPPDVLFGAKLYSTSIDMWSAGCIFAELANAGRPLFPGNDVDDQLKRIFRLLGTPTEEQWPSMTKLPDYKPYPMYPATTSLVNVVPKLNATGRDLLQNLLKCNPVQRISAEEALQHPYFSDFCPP
How it was run: as §1

[7] = target: DYRK1A (Homo sapiens (Human), UniProt Q13627); assay: scanMAX Kinase assay panel; type: binding; conditions: read-out: % control
How it was run: as §1

[8] = target: CSNK1E (Homo sapiens (Human), UniProt P49674); assay: scanMAX Kinase assay panel; type: binding; conditions: read-out: % control
Chain of CSNK1E (P49674 whole entry): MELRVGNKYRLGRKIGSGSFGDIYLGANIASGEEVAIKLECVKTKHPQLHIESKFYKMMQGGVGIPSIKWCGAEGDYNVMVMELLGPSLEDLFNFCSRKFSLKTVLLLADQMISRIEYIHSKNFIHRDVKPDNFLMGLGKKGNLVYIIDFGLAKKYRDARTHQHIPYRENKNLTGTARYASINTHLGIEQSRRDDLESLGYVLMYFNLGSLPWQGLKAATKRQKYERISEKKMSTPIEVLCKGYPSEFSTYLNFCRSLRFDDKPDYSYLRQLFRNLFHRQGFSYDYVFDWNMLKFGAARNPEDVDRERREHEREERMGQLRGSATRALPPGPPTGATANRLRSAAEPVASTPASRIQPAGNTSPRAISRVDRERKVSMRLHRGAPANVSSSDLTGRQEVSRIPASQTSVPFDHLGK
How it was run: as §1

[9] = target: DYRK2 (Homo sapiens (Human), UniProt Q92630); assay: scanMAX Kinase assay panel; type: binding; conditions: read-out: % control
Chain of DYRK2 (Q92630 whole entry): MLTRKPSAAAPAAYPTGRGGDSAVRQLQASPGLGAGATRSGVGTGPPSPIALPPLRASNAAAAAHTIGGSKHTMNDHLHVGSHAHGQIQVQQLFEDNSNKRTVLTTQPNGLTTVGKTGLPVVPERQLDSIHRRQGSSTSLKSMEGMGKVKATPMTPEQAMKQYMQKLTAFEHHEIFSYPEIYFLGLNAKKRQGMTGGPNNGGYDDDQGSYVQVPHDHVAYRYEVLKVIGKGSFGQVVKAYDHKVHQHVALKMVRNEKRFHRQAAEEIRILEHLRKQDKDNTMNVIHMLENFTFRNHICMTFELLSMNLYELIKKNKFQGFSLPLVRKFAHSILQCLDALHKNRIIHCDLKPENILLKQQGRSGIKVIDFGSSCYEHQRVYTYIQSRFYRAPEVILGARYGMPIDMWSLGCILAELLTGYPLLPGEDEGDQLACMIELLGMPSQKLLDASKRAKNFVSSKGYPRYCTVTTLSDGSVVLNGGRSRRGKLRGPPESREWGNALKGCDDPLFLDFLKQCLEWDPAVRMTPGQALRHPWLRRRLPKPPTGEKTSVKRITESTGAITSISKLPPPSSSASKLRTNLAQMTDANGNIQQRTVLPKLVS
How it was run: as §1

[10] = target: GSK3B (Homo sapiens (Human), UniProt P49841); assay: scanMAX Kinase assay panel; type: binding; conditions: read-out: % control
Chain of GSK3B (P49841 whole entry): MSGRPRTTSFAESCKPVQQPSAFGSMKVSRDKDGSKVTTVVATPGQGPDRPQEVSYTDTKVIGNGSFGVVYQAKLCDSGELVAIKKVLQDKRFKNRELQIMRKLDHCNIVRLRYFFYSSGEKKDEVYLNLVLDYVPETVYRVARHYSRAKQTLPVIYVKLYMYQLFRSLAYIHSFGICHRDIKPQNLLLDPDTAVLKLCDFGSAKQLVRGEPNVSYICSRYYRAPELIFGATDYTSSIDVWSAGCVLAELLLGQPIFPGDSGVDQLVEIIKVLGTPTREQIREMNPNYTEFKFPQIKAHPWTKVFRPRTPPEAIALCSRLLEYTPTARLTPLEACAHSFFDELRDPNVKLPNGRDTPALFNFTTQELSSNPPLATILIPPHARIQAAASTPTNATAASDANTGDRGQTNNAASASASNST
How it was run: as §1

[11] = system: 5× FAD mice; assay: Tau phosphorylation (AT180 immunohistochemistry) in Alzheimer's disease animal model; type: in vivo; conditions: 20 mg/kg i.p. every day for 2 weeks, vs vehicle
Method: 2 weeks later, immunohistochemistry was performed using AT180, one of Tau phosphorylation antibodies, and as a result confocal microscope images were obtained. Quantitative analysis with the images was performed using image j software.

[12] = system: mouse pancreatic β-cell; assay: mouse pancreatic β-cell proliferation (Ki-67/insulin staining); type: cell-based
Method: It is known that when human β-cells are treated with harmine that inhibits DYRK1A, the proliferation of β-cells is promoted by increasing the transcription factor activity by inhibiting the phosphorylation of NFAT known as a phosphorylation substrate of DYRK1A.
Particularly, pancreatic Langerhans islet tissues were extracted from the mouse at 8 weeks old, followed by culture in RPMI1640 medium supplemented with 10% FCS (fetal calves serum), 5.5 mM glucose and 1% penicillin-streptomycin for 24 hours.
Next, in order to separate β-cells as single cells from the Langerhans islet, cells were washed twice with PBS, followed by centrifugation. The collected cells were left in the medium supplemented with 1 mg/ml of trypsin for 10 minutes at 37° C. The cells were shaken using a pipette every 10 seconds for 5 minutes. Trypsin reaction was terminated by adding RPMI1640 containing 10% FCS (fetal calves serum), 5.5 mM glucose and 1% penicillin-streptomycin, followed by centrifugation to collect single cells.
Then, the single cells were loaded on the laminin-coated cover glass and stabilized for 24 hours. The cells were cultured in the medium containing the compound of the present invention for 72 hours. […] The cells double-stained with Ki-67/insulin were counted under Olympus F-1000 confocal fluorescence microscope to investigate cell proliferation.

[13] = system: 5× FAD mice; assay: novel object recognition test, long term cognitive function; type: in vivo; conditions: 20 mg/kg i.p. every day for 2 weeks, vs non-treated group
Method: Novel object recognition test is an experiment to test the memory of perception of an object. Mice were let to see two identical objects. After a certain period of time had passed (several hours˜a week), the mice were let to see a novel object together with the object previously presented. Then, how much those mice were interested in the novel object and studied it was evaluated, leading to the evaluation of long term memory of the previous object.
Two objects which were the same in the shape and in the size (F, F) were placed in a specific corner of the open field box (42×42×42 cm) made that the outside is not invisible from the inside, and a test mouse was started from the center of the box. Then, the number and time of the test mouse touching those two objects were recorded for 5 minutes (Acquisition). 24 hours later, one of those two objects was replaced with a new one (F, N). The number and time of access to the original object (F) and the new object (N) were recorded and digitized (Discrimination). Preference for the object (p) was calculated by (time to approach to a certain object)/(total time to approach to two objects). FIG. 10(a) presents the schematic diagram of novel object recognition test, and FIG. 10(b) presents the calculation results.

[14] = system: 5× FAD mice; assay: Y-maze behavioral test, short term cognitive function; type: in vivo; conditions: 20 mg/kg i.p. every day for 2 weeks, vs non-treated group
Method: Then, the mice were placed in Y-maze composed of three arms abutting 120°, and each arm was lifted sequentially for five minutes to calculate the number of alternation triplets to see how well the mice remembered where they visited.
The equipment used for Y-maze test is composed of three arms. The length of each arm was 42 cm, the width thereof was 3 cm and the height was 12 cm. The angle of contact between the three arms is 120°. All experimental devices were made of black polyvinyl plastic. Each arm was assigned with A, B and C. A test mouse was carefully located in one arm and let move freely for 8 minutes. Then, the arm which the test mouse entered was recorded. At this time, the ‘enter’ means the case when the mouse tail was completely in. If the mouse entered an arm where it had already visited, the case was also recorded. If the mouse entered three different arms one by one (actual alternation), one point was given. Alternation behavior was defined by that the mouse entered three different arms stepwise, which was calculated by the following equation. […] [alternation behavior (%)=actual alternation/*maximum alternation×100]
*maximum alternation: total entries−2

Chain of CLK4 (Q9HAZ1 whole entry): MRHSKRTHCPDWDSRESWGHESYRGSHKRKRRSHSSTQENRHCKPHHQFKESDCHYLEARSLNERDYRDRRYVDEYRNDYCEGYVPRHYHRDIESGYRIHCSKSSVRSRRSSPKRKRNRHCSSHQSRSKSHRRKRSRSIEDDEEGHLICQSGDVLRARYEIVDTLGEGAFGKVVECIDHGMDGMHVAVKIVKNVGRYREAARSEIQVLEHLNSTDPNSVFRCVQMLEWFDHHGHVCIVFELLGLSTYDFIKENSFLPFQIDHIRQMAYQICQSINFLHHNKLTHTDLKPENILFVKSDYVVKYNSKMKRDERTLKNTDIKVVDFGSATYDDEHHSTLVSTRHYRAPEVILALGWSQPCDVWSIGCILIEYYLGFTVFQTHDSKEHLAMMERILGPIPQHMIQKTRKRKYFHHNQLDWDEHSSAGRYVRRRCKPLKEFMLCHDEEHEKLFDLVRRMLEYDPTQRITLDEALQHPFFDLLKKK
Chain of CLK1 (P49759 whole entry): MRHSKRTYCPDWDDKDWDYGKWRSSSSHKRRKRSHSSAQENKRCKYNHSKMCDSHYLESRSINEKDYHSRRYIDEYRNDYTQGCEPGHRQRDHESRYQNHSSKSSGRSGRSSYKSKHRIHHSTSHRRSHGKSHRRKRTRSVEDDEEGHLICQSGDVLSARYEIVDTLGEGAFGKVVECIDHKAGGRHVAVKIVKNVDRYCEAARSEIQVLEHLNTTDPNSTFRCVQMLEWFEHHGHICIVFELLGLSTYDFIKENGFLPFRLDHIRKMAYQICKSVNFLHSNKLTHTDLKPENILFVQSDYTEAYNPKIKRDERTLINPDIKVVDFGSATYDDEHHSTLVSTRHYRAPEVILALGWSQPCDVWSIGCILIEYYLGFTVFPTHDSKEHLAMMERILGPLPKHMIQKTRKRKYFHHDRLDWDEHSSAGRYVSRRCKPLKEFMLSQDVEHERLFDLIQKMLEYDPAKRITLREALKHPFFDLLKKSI

Compound	remaining binding at 1 µM [1] [%]	remaining binding at 1 µM [2] [%]	remaining binding at 1 µM [3] [%]	remaining binding at 1 µM [4] [%]	remaining binding at 1 µM [5] [%]	remaining binding at 1 µM [6] [%]	remaining binding at 1 µM [7] [%]	remaining binding at 1 µM [8] [%]	remaining binding at 1 µM [9] [%]	remaining binding at 1 µM [10] [%]	immunoreactivity of AT180 in the cerebral cortex region [11]	immunoreactivity of AT180 in the hippocampus [11]	increase of the cell number ([12]; Ki-67/insulin double-stained cells, 72 hours) [times]	cell proliferation ([12]; mouse pancreatic β-cells cultured with compound for 72 hours)	long term memory (preference for the new object) [13]	short term memory (Y-maze alternation behavior) [14]
CCNc1cc(Nc2ccc(C(=O)N3CCC(N4CCOCC4)CC3)cc2OC)nc2[nH]cc(C#N)c12 [Example 18, 4-(ethylamino)-6-((2-methoxy-4-(4-morpholinopiperidine-1-carbonyl)phenyl)amino)-1H-pyrrolo[2,3-b]pyridine-3-carbonitrile]	1.9	4	73	8.5	4	100	2	0.6	14	97						
CCNc1cc(Nc2ccc(C(=O)N3CCC(N4CCOCC4)CC3)cc2OC)nc2[nH]cc(C(F)(F)F)c12 [Example 57, (4-((4-(ethylamino)-3-(trifluoromethyl)-1H-pyrrolo[2,3-b]pyridin-6-yl)amino)-3-methoxyphenyl) (4-morpholinopiperidin-1-yl)methanone]											no significant change	significantly reduced	5	active	improved long term memory	improved short term memory
